Data published in patent EP0907632B1, “INHIBITION OF MATRIX METALLOPROTEASES BY SUBSTITUTED PHENETHYL COMPOUNDS” (Bayer Corporation, priority 1996, dated 1997).

Experiments:
[1] = target: T1, MMP-9 (Homo sapiens, UniProt P14780); format: biochemical; conditions: 6 µM P218 substrate, pH 6.5, 25 min at 37°C; calculated from IC50; read-out: MMP-9 Kf
T1 construct: made in house
Description: (§1) The P218 quenched fluorescence assay (Microfluorometric Profiling Assay) is a modification of that originally described by Knight, et al., FEBS Lett. 296, 263, 1992 for a related substance and a variety of matrix metalloproteinases (MMPs) in cuvettes. The assay was run with each invention compound and the three MMPs, Mmp-3, MMP-9 and MMP-2, analyzed in parallel, adapted as follows for a 96-well microtiter plate and a Hamilton AT® workstation. P218 Fluorogenic Substrate: P218 is a synthetic substrate containing a 4-acetyl-7-methoxycoumarin (MCA) group in the N-terminal position and a 3-[2, 4-dinitrophenyl]-L-2,3-diaminopropionyl (DPA) group internally. This is a modification of a peptide reported by Knight (1992) that was used as a substrate for matrix metalloproteinases. Once the P218 peptide is cleaved (putative clip site at the Ala-Leu bond), the fluorescence of the MCA group can be detected on a fluorometer with excitation at 328 nm and emission at 393 nm. P218 is currently being produced BACHEM exclusively for Bayer. P218 has the structure: H-MCA-Pro-Lys-Pro-Leu-Ala-Leu-DPA-Ala-Arg-NH2 (MW 1332.2)
Recombinant Human Pro-MMP-9: Human pro-gelatinase B (pro-MMP-9) derived from U937 cDNA as described by Wilhelm, et al. J. Biol. Chem. 264, 17213, 1989 was expressed as the full-length form using a baculovirus protein expression system. The pro-enzyme was purified using methods previously described by Hibbs, et al. J. Biol. Chem. 260, 2493, 1984.
Activation of Pro-MMP-9: […] 20 µg/mL in 50 mM Tris at pH 7.4, 10mM CaCl2, 150 mM NaCl, and 0.005% Brij-35 (MMP-9 activation buffer) was activated by incubation with 0.5 mM p-aminophenylmercuric acetate (APMA) for 3.5 h at 37 °C. The enzyme was dialyzed against the same buffer to remove the APMA.
(§2) Hamiltion Microlab AT P!us: The MMP-Profiling Assay is performed robotically on a Hamilton MicroLab AT Plus®. The Hamilton is programmed to: (1) serially dilute up to 11 potential inhibitors automatically from a 2.5 mM stock in 100% DMSO; (2) distribute substrate followed by inhibitor into a 96 well Cytofluor plate; and (3) add a single enzyme to the plate with mixing to start the reaction. Subsequent plates for each additional enzyme are prepared automatically by beginning the program at the substrate addition point, remixing the diluted inhibitors and beginning the reaction by addition of enzyme. In this way, all MMP assays were done using the same inhibitor dilutions.
(§3) Millipore Cytofluor II. Following incubation, the plate was read on a Cytofluor II fluorometric place reader with excitation at 340 nm and emission at 395 nm with the gain set at 80.
(§4) Microfluorometric Reaction Buffer (MRB): Dilution of test compounds, enzymes, and P218 substrate for the microfluorometric assay were made in microfluorometric reaction buffer consisting of 50 mM 2-(N-morpholino)ethanesulfonic acid (MES) at pH 6.5 with 10 mM CaCl2, 150 mM NaCl, 0.005% Brij-35 and 1% DMSO.
(§5) MMP Microfluorometric Profiling Assay. The assay is done with a final substrate concentration of 6 µM P218 and approximately .5 to .8 nM MMP with variable drug concentrations. The Hamilton is programmed to serially dilute up to 11 compounds from a 2.5 mM stock (100% DMSO) to 10x the final compounds concentrations in the assay. Initially, the instrument delivers various amounts of microfluoromentric reaction buffer (MRB) to a 96 tube rack of 1 ml Marsh dilution tubes. The instrument then picks up 20 µl of inhibitor (2.5 mM) from the sample rack and mixes it with a buffer in row A of the Marsh rack, resulting in a 50 µM drug concentration. The inhibitors are then serially diluted to 10, 5, 1, .2, .05 and .01 µM. Position 1 on the sample rack contains only DMSO for the "enzyme-only" wells in the assay, which results in no inhibitor in column 1, rows A through H. The instrument then distributes 107 µl of P218 substrate (8.2 µM in MRB) to a single 96 well cytofluor microtiter plate. […]

[2] = target: T2, MMP-2 (Homo sapiens, UniProt P08253); experiment: biochemical
T2 sequence (P08253 110-660): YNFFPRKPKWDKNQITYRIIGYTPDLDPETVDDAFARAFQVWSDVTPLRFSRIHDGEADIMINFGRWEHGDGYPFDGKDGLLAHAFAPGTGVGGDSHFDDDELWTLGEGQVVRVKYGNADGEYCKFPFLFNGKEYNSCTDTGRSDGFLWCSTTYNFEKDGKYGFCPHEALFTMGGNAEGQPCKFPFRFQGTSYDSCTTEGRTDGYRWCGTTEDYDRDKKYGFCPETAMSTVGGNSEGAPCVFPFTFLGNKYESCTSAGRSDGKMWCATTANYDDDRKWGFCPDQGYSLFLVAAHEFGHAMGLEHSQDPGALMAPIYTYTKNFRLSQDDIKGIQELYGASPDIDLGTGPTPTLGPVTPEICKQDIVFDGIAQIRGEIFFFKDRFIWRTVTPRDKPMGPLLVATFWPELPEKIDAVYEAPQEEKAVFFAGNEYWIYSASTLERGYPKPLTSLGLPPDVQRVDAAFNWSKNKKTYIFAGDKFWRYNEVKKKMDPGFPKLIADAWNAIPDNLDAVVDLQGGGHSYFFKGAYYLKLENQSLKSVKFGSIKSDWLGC

[3] = target: T3, MMP-3 (Homo sapiens, UniProt P08254); format: biochemical; conditions: 6 µM P218 substrate, pH 6.5, 25 min at 37°C; calculated from IC50; read-out: MMP-3 Kf
T3 construct: made in house; host or cells: CHO cells
T3 sequence (P08254 100-477): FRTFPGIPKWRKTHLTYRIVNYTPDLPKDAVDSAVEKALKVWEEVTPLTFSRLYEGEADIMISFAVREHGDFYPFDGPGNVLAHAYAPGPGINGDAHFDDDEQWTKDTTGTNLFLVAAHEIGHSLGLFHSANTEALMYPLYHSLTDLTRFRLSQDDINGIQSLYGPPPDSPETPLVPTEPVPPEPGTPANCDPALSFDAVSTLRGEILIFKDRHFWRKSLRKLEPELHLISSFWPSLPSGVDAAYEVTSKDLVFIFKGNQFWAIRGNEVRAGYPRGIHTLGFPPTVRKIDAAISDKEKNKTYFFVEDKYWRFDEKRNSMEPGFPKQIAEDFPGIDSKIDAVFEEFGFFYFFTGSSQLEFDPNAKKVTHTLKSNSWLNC
Description: as §1
Recombinant Human CHO Pro-MMP-3: Human CHO pro-stromelysin-257 (pro-MMP-3) was expressed and purified as described by Housley, et al., J. Biol. Chem. 268, 4481, 1993.
Activation of Pro-MMP-3 Pro-MMP-3 at 1.72 µM (100 µg/mL) in 5 mM Tris at pH 7.5, 5 mM CaCl2, 25 mM NaCl, and 0.005% Brij-35 (MMP-3 activation buffer) was activated by incubation with TPCK (N-tosyl-(L)-phenylalanine chloromethyl ketone) trypsin (1:100 w/w to pro-MMP-3) at 25 °C for 30 min. The reaction was stopped by addition of soybean trypsin inhibitor (SBTI: 5:1 w/w to trypsin concentration). This activation protocol results in the formation of 45 kDa active MMP-3, which still contains the C-terminal portion of the enzyme.
as §2, §3, §4, §5

T1 sequence (P14780 107-707 limits assumed): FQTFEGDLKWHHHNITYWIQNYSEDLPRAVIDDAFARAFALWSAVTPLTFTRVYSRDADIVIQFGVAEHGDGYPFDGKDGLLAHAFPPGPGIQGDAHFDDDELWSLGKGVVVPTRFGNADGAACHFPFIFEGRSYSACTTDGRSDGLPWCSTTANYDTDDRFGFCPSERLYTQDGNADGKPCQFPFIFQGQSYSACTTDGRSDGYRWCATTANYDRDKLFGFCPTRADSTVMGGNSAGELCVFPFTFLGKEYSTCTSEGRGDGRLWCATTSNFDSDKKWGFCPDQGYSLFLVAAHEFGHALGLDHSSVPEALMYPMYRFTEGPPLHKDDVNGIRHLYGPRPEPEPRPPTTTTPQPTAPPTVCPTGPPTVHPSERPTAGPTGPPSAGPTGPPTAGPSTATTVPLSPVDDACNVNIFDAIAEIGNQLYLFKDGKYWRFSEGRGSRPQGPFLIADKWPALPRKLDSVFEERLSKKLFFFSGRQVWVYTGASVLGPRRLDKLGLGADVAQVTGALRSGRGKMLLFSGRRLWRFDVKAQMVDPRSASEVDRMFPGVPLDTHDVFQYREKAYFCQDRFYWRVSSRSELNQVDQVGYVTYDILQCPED

Structure (SMILES)	Ki [1] [nM]	Ki [2] [nM]	Ki [3] [nM]
CCOC(=O)CN(C)C(=O)c1ccccc1CCC(CC(=O)c1ccc(-c2ccc(Cl)cc2)cc1)C(=O)O (stereo not drawn) [IX, 4'-chloro-α-[2-[2-[[(2-ethoxy-2-oxoethyl)methylamino]carbonyl]phenyl]ethyl]-γ-oxo-[1,1'-biphenyl]-4-butanoic acid]	254	17.5	43.6
O=C(CC(CCc1cccc(C(=O)NCCCc2ccccc2)c1)C(=O)O)c1ccc(-c2ccc(Cl)cc2)cc1 (stereo not drawn) [XIII, 4'-chloro-γ-oxo-α-[2-[3[[(3-phenylpropyl)amino]carbonyl]phenyl]ethyl]-[1,1'-biphenyl]-4-butanoic acid]	552	157	236
CC(C)CCNC(=O)c1ccc(CCC(CC(=O)c2ccc(-c3ccc(Cl)cc3)cc2)C(=O)O)cc1 (stereo not drawn) [XVIII, 4'-chloro-α-[2-[4-[[(3-methylbutyl)amino]carbonyl]phenyl]ethyl]-γ-oxo-[1,1'-biphenyl]-4-butanoic acid]	452	137	677
O=C(O)CNC(=O)c1ccccc1CCC(CC(=O)c1ccc(-c2ccc(Cl)cc2)cc1)C(=O)O (stereo not drawn) [Compound XXIII, α-[2-[2-[[(2-carboxymethyl)amino]carbonyl]phenyl]ethyl]-4'-chloro-γ-oxo-[1,1'-biphenyl]-4-butanoic acid]	1590	96	259
O=C(CC(CCc1ccccc1C(=O)NCCc1ccccc1)C(=O)O)c1ccc(-c2ccc(Cl)cc2)cc1 (stereo not drawn) [Compound I, 4'-chloro-γ-oxo-α-[2-[2-[[(2-phenylethyl)amino]carbonyl]phenyl]ethyl]-[1,1'-biphenyl]-4-butanoic acid]	173	41.1	127
CC(C)CCNC(=O)c1cccc(CCC(CC(=O)c2ccc(-c3ccc(Cl)cc3)cc2)C(=O)O)c1 (stereo not drawn) [XIV, 4'-chloro-α-[2-[3-[[(3-methylbutyl)amino]carbonyl]phenyl]ethyl]-γ-oxo-[1,1'-biphenyl]-4-butanoic acid]	707	110	308
O=C(CC(CCc1cccc(C(=O)N2CCCCC2)c1)C(=O)O)c1ccc(-c2ccc(OCc3ccccc3)cc2)cc1 (centres unmarked) [Compound XXX]	102	4.44	12.5
CC(C)CCNC(=O)c1ccccc1CCC(CC(=O)c1ccc(-c2ccc(Cl)cc2)cc1)C(=O)O (stereo not drawn) [VI, 4'-chloro-α-[2-[2-[[(3-methylbutyl)amino]carbonyl]phenyl]ethyl]-γ-oxo-[1,1'-biphenyl]-4-butanoic acid]	431	58.1	214
O=C(O)CCNC(=O)c1ccccc1CCC(CC(=O)c1ccc(-c2ccc(Cl)cc2)cc1)C(=O)O (centres unmarked) [Compound XXII]	1130	63.5	166
O=C(CC(CCc1ccccc1C(=O)NCCCc1ccccc1)C(=O)O)c1ccc(-c2ccc(Cl)cc2)cc1 (stereo not drawn) [IV, 4'-chloro-γ-oxo-α-[2-[2-[[(3-phenylpropyl)amino]carbonyl]phenyl]ethyl]-[1,1'-biphenyl]-4-butanoic acid]	246	68.7	175
CCOC(=O)CNC(=O)c1ccc(CCC(CC(=O)c2ccc(-c3ccc(Cl)cc3)cc2)C(=O)O)cc1 (stereo not drawn) [XIX, 4'-chloro-α-[2-[4-[[(2-ethoxy-2-oxoethyl)amino]carbonyl]phenyl]ethyl]-γ-oxo[1,1'-biphenyl]4-butanoic acid]	423	82.3	376
O=C(CC(CCc1ccccc1C(=O)N1CCCCC1)C(=O)O)c1ccc(-c2ccc(Cl)cc2)cc1 (stereo not drawn) [V, 4'-chloro-γ-oxo-α-[2-[2-(1-piperidinylcarbonyl)phenyl]ethyl]-[1,1'-biphenyl]-4-butanoic acid]	146	13.8	54.7
O=C(CC(CCc1cccc(C(=O)NCc2ccccc2)c1)C(=O)O)c1ccc(-c2ccc(Cl)cc2)cc1 (stereo not drawn) [XV, 4'-chloro-γ-oxo-α-[2-[3-[[(phenylmethyl)amino]carbonyl]phenyl]ethyl]-[1,1'-biphenyl]-4-butanoic acid]	493	104	364
O=C(CC(CCc1cccc(C(=O)N2CCOCC2)c1)C(=O)O)c1ccc(-c2ccc(Cl)cc2)cc1 (stereo not drawn) [Compound X, 4'-chloro-α-[2-[3-(4-morpholinylcarbonyl)phenyl]ethyl]-γ-oxo-[1,1'-biphenyl]-4-butanoic acid]	251	26.1	73.8
O=C(CC(CCc1cccc(C(=O)NCCc2ccccc2)c1)C(=O)O)c1ccc(-c2ccc(Cl)cc2)cc1 (stereo not drawn) [XII, 4'-chloro-γ-oxo-α-[2-[3-[[(2-phenylethyl)amino]carbonyl]phenyl]ethyl]-[1,1'-biphenyl]-4-butanoic acid]	2650	125	450
CCOC(=O)CN(C)C(=O)c1cccc(CCC(CC(=O)c2ccc(-c3ccc(Cl)cc3)cc2)C(=O)O)c1 (stereo not drawn) [XVI, 4'-chloro-α-[2-[3-[[(2-ethoxy-2-oxoethyl)methylamino]carbonyl]phenyl]ethyl]-γ-oxo-[1,1'-biphenyl]-4-butanoic acid]	137	9.86	24.8
O=C(CC(CCc1ccc(C(=O)NCCc2ccccc2)cc1)C(=O)O)c1ccc(-c2ccc(Cl)cc2)cc1 (stereo not drawn) [Compound XX, 4'-chloro-γ-oxo-α-[2-[4-[[(2-phenylethyl)amino]carbonyl]phenyl]ethyl]-[1,1'-biphenyl]-4-butanoic acid]	2000	446	
